According to patent US20250213703A1, “HUMAN INTERLEUKIN 2-POLYETHYLENE GLYCOL CONJUGATE AND USE THEREOF” (Novocodex Biopharmaceuticals Co., Ltd., priority 2021, published 2025):

Tests used:
IL-2Rαβγ = target: T1, IL-2Rαβγ (Homo sapiens, UniProt P01589+P14784+P31785); conditions: high-affinity complex IL-2Rαβγ; cited from earlier work
T1 sequence (P01589 22-272): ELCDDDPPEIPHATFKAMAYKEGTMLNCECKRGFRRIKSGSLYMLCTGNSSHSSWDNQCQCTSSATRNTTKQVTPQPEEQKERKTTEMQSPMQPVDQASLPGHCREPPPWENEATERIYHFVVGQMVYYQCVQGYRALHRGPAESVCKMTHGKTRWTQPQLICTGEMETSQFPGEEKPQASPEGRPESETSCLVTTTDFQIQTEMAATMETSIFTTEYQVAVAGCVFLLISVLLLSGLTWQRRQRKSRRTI
T1 sequence (P14784 27-551): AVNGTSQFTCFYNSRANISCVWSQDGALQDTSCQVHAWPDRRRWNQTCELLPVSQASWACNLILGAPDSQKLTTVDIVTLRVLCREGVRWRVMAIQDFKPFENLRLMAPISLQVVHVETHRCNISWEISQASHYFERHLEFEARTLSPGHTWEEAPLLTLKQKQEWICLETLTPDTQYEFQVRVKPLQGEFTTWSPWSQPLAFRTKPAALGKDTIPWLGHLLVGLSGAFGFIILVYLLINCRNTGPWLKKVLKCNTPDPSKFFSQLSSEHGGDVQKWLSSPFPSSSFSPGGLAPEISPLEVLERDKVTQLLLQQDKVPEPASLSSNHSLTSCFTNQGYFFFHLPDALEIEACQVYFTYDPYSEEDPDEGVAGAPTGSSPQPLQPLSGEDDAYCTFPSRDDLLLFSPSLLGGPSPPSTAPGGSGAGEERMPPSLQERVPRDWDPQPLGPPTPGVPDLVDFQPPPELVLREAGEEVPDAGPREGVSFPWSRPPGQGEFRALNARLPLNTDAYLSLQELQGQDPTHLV
T1 sequence (P31785 23-369): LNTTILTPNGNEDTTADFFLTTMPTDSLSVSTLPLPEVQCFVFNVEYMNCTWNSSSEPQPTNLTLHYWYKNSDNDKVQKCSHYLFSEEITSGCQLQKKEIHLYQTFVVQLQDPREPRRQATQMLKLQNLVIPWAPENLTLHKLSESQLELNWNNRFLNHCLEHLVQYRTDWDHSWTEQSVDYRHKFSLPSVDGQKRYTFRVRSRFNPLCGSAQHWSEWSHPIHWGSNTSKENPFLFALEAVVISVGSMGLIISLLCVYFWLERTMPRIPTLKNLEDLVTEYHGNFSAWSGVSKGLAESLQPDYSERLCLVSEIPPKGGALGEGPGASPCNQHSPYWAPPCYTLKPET

IL-2Rβγ = target: T2, IL-2Rβγ (Homo sapiens, UniProt P14784+P31785); conditions: moderate-affinity complex IL-2Rβγ; cited from earlier work
T2 sequence (P14784 27-551): T1 sequence (P14784 27-551)
T2 sequence (P31785 23-369): T1 sequence (P31785 23-369)

IL-2Rα = target: T3, IL-2Rα (Homo sapiens, UniProt P01589); conditions: low-affinity receptor IL-2Rα subunit; cited from earlier work
T3 sequence (P01589 22-272): T1 sequence (P01589 22-272)

YT cells = assay: STAT5 phosphorylation assay (YT cells); format: cell-based, human; conditions: [EC50 YT/EC50 CTLL-2 of sample]/[EC50 YT/EC50 CTLL-2 of reference] × 100%
Source text: In this method, two cell lines were adopted, wherein mouse CTLL-2 cells were a cell line containing IL-2Rαβγ, and human YT cells were a cell line containing IL-2Rβγ, and rhIL-2 activated the JAK-STAT signal pathway by binding with IL-2R on the cell surface. […] The lower the percentage change of EC50 ratio of YT cells/CTLL-2 cells was, the better the effect of promoting the immune function of the samples was, and on the contrary, the better the effect of inhibiting the immune function was.
The specific process was as follows: the mouse CTLL-2 cells (purchased from American Type Culture Collection) and the human YT cells were cultured in their own media (CTLL-2 cell medium: RPMI 1640+10% FBS+400 IU/mL rhIL-2, 2 mM L-glutamine and 1 mM sodium pyruvate; and YT cell medium: RPMI 1640+10% FBS+1 mm Non-Essential Amino Acids Solution (purchased from Gibco, product catalog number 11140050)) to a sufficient amount at condition of 37° C. and 5% carbon dioxide, and starved for 4 hours before detection, and then the cell density was adjusted to be 1×10^6 cells/mL for later use.

[1] = test system: mouse colon cancer CT26.WT; assay: Anti-tumor activity, CT26.WT homograft tumor model; format: in vivo; conditions: Balb/c mice
Experimental: (§1) A cell suspension of 2×10^5/0.1 mL/mouse CT26.WT (purchased from […], product catalog number CRL-2638) and a cell suspension of 4×10^5/0.1 mL/mouse H22 (purchased from CCTCC, product catalog number GD00091) were subcutaneously inoculated into right backs of the mice. […] During the experiment, weights and tumor volumes of the animals were measured 3 times every week, and administration modes and experimental results were shown in Table 4.

mouse liver cancer H22 = assay: Anti-tumor activity, H22 homograft tumor model; format: in vivo; conditions: Balb/c mice
Experimental: as §1

[2] = test system: CD8^+ T cells and CD4^+ Treg cells; assay: Immune cell population in CT26.WT tumor tissue (flow cytometry); format: in vivo, mouse; conditions: for CD8^+ T cells/CD4^+ Treg / Percentage of CD4^+ Treg in leucocytes / Percentage of CD8^+ T cells in leucocytes: 5th day, 2.0 mg/kg IV single dosage; for proportions of CD4^+ Treg cells compared with Quanqi rhIL2 / proportions of CD8^+ T cells compared with Quanqi rhIL2 / proportions of CD8^+ T/CD4^+ Treg compared with Quanqi rhIL2: in words
Experimental: A cell suspension of 2×10^5/0.1 mL/mouse CT26.WT was subcutaneously inoculated into right backs of the mice. […] On the 5th day, tumor tissue samples of various groups were collected for flow cytometry detection of changes in cell populations of CD8^+ T cells and CD4^+ Treg cells.

[3] = mouse, in vivo, iv, 1 mg/kg
Experimental: The blood sample was placed at room temperature for 15 minutes and centrifuged at 6,800 g/min for 6 minutes to obtain serum. The plasma concentration in the serum was analyzed by the following method:
(1) Coating: 50 μL of 1 μg/mL working solution of Anti-IL-2 antibody (purchased from abcam, product catalog number: ab9618) was added into each well in a high-adsorption 96-well plate, and incubated at 2° C. to 8° C. overnight. (2) Washing: the liquid in the well was discarded, and the well was washed with 1 xPBST (0.05% Tween-20) for 3 times, according to 300 μL/well. (3) Sealing: a casein sealing solution (purchased from Thermo, product catalog number 37528) was added according to 200 μL/well, and allowed to stand at room temperature for 90 minutes. (4) Washing: the liquid in the well was discarded, and the well was washed with 1 xPBST for 3 times, according to 300 μL/well. […] (6) Washing: the liquid in the well was discarded, and the well was washed with 1×PBST for 3 times, according to 300 μL/well. (7) Primary antibody: 50 μL of 0.25 μg/mL working solution of IL-2 Monoclonal Antibody (BG5) and Biotin (purchased from Invitrogen, product catalog number M600B) was added into each well, and allowed to stand at room temperature for 60 minutes. (8) Washing: the liquid in the well was discarded, and the well was washed with 1×PBST for 3 times, according to 300 μL/well. (9) Secondary antibody: Pierce™ High Sensitivity Streptavidin-HRP (purchased from Thermo, product catalog number 21130) was diluted for 4,000 times with a casein sealing solution, and 50 μL was added into each well, and allowed to stand at room temperature for 60 minutes. (10) Washing: the liquid in the well was discarded, and the well was washed with 1×PBST for 4 times, according to 300 μL/well. […] (12) Stopping and reading: 2 M sulfuric acid stop solution was added 25 minutes later, and light absorption values at 450 nm and 650 nm were read on a microplate reader (purchased from Perkin Elmer, model EnSight).

[4] = target: IL-2Rαβγ on mouse CTLL-2 cells (mouse (CTLL-2 cells)) (UniProt P01590); assay: cell-based or functional assay
IL-2Rαβγ on mouse CTLL-2 cells (mouse (CTLL-2 cells)), sequence (P01590 22-268, chain 1 of 3): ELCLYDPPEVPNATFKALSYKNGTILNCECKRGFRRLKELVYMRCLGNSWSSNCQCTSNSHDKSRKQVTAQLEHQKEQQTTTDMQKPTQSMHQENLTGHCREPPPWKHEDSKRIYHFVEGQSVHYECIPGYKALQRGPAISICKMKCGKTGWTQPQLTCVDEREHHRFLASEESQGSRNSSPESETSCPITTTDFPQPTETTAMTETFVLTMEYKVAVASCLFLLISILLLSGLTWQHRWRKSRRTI
IL-2Rαβγ on mouse CTLL-2 cells (mouse (CTLL-2 cells)), sequence (P16297 27-539, chain 2 of 3, further chain): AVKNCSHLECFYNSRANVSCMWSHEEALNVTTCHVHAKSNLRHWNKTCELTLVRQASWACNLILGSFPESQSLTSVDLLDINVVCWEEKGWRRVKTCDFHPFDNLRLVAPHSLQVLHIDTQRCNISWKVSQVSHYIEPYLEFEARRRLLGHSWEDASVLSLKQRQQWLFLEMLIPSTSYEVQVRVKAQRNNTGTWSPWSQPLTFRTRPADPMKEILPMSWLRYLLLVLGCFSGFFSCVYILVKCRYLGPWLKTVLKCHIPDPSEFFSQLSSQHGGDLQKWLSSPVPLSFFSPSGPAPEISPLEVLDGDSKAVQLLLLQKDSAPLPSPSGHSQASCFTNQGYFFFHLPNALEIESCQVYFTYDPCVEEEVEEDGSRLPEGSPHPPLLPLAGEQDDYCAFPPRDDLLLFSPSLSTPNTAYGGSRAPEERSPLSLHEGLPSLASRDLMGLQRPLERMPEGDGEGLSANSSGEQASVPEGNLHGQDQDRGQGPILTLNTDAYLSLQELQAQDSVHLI
IL-2Rαβγ on mouse CTLL-2 cells (mouse (CTLL-2 cells)), sequence (P34902 23-369, chain 3 of 3, further chain): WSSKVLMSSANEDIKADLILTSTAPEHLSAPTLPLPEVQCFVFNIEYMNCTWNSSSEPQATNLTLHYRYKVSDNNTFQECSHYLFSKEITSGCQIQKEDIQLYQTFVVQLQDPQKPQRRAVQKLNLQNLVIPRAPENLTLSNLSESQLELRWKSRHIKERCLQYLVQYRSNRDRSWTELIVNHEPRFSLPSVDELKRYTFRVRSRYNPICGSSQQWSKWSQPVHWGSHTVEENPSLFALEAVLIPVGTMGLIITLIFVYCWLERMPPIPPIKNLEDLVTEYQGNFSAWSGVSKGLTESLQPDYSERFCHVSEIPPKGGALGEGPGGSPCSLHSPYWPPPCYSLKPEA

[5] = high dosage 5.0 mg/kg IV Q5D × 3
[6] = low dosage 0.7 mg/kg IV Q5D × 3

## IL-2: mature human IL-2 with 133 amino acids, background description
IL-2Rαβγ
  Kd: 0.01 nM
IL-2Rβγ
  Kd: 1 nM
IL-2Rα
  Kd: 10 nM

## 30 KD PEG-rhIL2-P65: rhIL-2 with unnatural amino acid NOPK at P65 site, coupled via oxime bond with 30 KD aminoxy PEG
YT cells
  Percentage change of EC50 ratio of YT/CTLL-2 cells of 30 KD PEG-rhIL2 sample: 91%

## 30 KD PEG-rhIL2-Y45: rhIL-2 with unnatural amino acid NOPK at Y45 site, coupled via oxime bond with 30 KD aminoxy PEG
YT cells
  Percentage change of EC50 ratio of YT/CTLL-2 cells of 30 KD PEG-rhIL2 sample: 6%
[1]; [5]
  Average value ± standard error of tumor weight: 0.22 g
  TGITW: 92%
[1]; [6]
  Average value ± standard error of tumor weight: 0.93 g
  TGITW: 66%
Mouse liver cancer H22; [5]
  Average value ± standard error of tumor weight: 0.4 g
  TGITW: 79%
Mouse liver cancer H22; [6]
  Average value ± standard error of tumor weight: 0.82 g
  TGITW: 57%
[2]
  CD8^+ T cells/CD4^+ Treg: 23.2
  Percentage of CD4^+ Treg in leucocytes: 1.3%
  Percentage of CD8^+ T cells in leucocytes: 30.1%
  proportions of CD4^+ Treg cells compared with Quanqi rhIL2: significantly decreased
  proportions of CD8^+ T cells compared with Quanqi rhIL2: significantly increased
  proportions of CD8^+ T/CD4^+ Treg compared with Quanqi rhIL2: significantly increased
[3]
  AUC0-t: 168.141 µg·h/mL
  MRT0-t: 9.42 h
  Vz: 0.126 L/kg

## reference rhIL-2 (purchased from Beijing Solarbio Science & Technology Co., Ltd., catalog number: P00020) (from UniProt P60568 21-153) (ligand)
[4]
  STAT5 phosphorylation assay (CTLL-2 cells) EC50: 0.12 ng/mL

## 30 KD PEG-rhIL2-E61: rhIL-2 with unnatural amino acid NOPK at E61 site, coupled via oxime bond with 30 KD aminoxy PEG
YT cells
  Percentage change of EC50 ratio of YT/CTLL-2 cells of 30 KD PEG-rhIL2 sample: 89%

## 30 KD PEG-rhIL2-K35: rhIL-2 with unnatural amino acid NOPK at K35 site, coupled via oxime bond with 30 KD aminoxy PEG
YT cells
  Percentage change of EC50 ratio of YT/CTLL-2 cells of 30 KD PEG-rhIL2 sample: 53%

## 30 KD PEG-rhIL2-T41: rhIL-2 with unnatural amino acid NOPK at T41 site, coupled via oxime bond with 30 KD aminoxy PEG
YT cells
  Percentage change of EC50 ratio of YT/CTLL-2 cells of 30 KD PEG-rhIL2 sample: 43%
[1]; [5]
  Average value ± standard error of tumor weight: 0.32 g
  TGITW: 88%
[1]; [6]
  Average value ± standard error of tumor weight: 0.64 g
  TGITW: 77%
Mouse liver cancer H22; [5]
  Average value ± standard error of tumor weight: 0.38 g
  TGITW: 80%
Mouse liver cancer H22; [6]
  Average value ± standard error of tumor weight: 0.69 g
  TGITW: 63%
[2]
  CD8^+ T cells/CD4^+ Treg: 27.7
  Percentage of CD4^+ Treg in leucocytes: 1.3%
  Percentage of CD8^+ T cells in leucocytes: 36.0%
  proportions of CD4^+ Treg cells compared with Quanqi rhIL2: significantly decreased
  proportions of CD8^+ T cells compared with Quanqi rhIL2: significantly increased
  proportions of CD8^+ T/CD4^+ Treg compared with Quanqi rhIL2: significantly increased
